Columns and labels:
TH neurons in SNpc area = assay: TH neuron immunohistochemistry, SNpc area, MPTP-induced PD mice; format: in vivo, C57BL/6J mice
Method: (§1) Forty of C57BL/6J mice (male, 6 to 7 week-old) were feed for 7 days to adapt to the environment. On the day 8, animal model was started to prepare. 20 mg/kg MPTP was given via intraperitoneal injection for the model group and drug group, the injection was made every 2 hours, for four times in total, and an acute PD model was established. The equivalent amount of saline was given to the normal control group. From the day 2 of model establishment, the compound MT-019 and the positive control drug Rasagiline (1 mg/kg) were given. The doses of MT-019 were 25, 75, 225 mg/kg, respectively. The drug was given once a day, and a equal amount of saline was given to the normal control group and the MPTP model group, for seven days consecutively. On the day 7 of drug administration, behavioral test is performed.
After the above-mentioned animal model was set up and drug was given to the mice as described in Example 86, materials was taken at 12 hours after the last drug administration in the steps shown below: (1) With 10% chloral hydrate anesthesia in mice, the mice were fixed on an operating table, the chest thereof was quickly open; (2) […], […] the left ventricle, the right auricle was cut open, and a blood buffer was delivered to the heart from an infusion bottle with a volume of about 50 mL per mouse; (3) after the lavage fluid became colorless, the blood buffer was replaced with 4% paraformaldehyde solution in perfusion until the tail and limbs of the mice became stiff, wherein the infusion volume was about 100 mL per mouse; (4) the brain was taken by making the mice beheaded on a flat glass board, and redundant parts were carefully removed. The midbrain was placed and fixed in a centrifuge tube containing freshly prepared 4% paraformaldehydea. The samples were cut into paraffin sections through the process of dehydrating, transparent, paraffining and embedding steps. Each of the samples was cut with paraffin slicing machine into four microns slices. After fully unfold in water bath, the slices were put on glass plates and numbered. […]

[1] = tested on: MPTP-induced abnormal behavior of mice of Parkinson's disease (PD) model; assay: Behavioral test in MPTP-induced mice of Parkinson's disease (PD) model; format: in vivo, C57BL/6J mice; conditions: MT-019 25, 75, 225 mg/kg once a day for seven days; behavioral test on day 7 of administration
Method: as §1

C#CCNC(C)c1ccc(/C=[N+](\[O-])C(C)(C)C)c(OC(=O)N(C)CC)c1 (stereo not shown) [MT-019] was tested, and the “protective effect to dopaminergic neurons compared with positive control Rasagiline” value (TH neurons in SNpc area; 25 mg/kg MT-019 versus Rasagiline 1 mg/kg) was “equivalent to that of the positive control drug Rasagiline 1 mg/kg”, the “protective effect on SNpc area TH neurons (positive cell count in substantia nigra)” value (TH neurons in SNpc area; MT-019 25, 75, 225 mg/kg once a day for seven days, material taken 12 hours after last administration) was “had protective effect” and the “dose dependence of protective effect on TH neurons” value (TH neurons in SNpc area; doses 25, 75, 225 mg/kg) was “stronger effect was indicated with higher doses”. For the same compound, the “recovery effect to MPTP-induced abnormal behavior” value [1] was “had recory effect”.

From patent US9938235B2, “Compounds with neural protective effect, and preparation and use thereof” (GUANGZHOU MAGPIE PHARMACEUTICAL CO., LTD., priority 2014, dated 2018)
